Key:
[1] = Inhibition of RSV Long fusion protein assessed as protection against virus induced cytopathic effect in infected human Hep2 cells after 5 days by CCK8 assay
[2] = Inhibition of RSV Long fusion protein L138F mutant assessed as protection against virus induced cytopathic effect in infected human Hep2 cells after 5 days by CCK8 assay
[3] = Inhibition of RSV Long fusion protein assessed as decrease in virus induced syncytium formation in infected human HeLa/M cells

| EC50 [1] | SMILES | also measured |
| --- | --- | --- |
| > 100000 nM | NCCCCNc1cc(N2CCc3ccccc3C2)nc2ccccc12 | – |
| 62 nM | Cc1ccc2nc(N3CCC(F)(F)c4ccccc4C3)cc(NCCN)c2c1 | – |
| 220 nM | NCC(O)CNc1cc(N2CCCc3ccccc3C2)nc2ccccc12 (stereo not drawn) | – |
| > 3200 nM | NCCNc1cc(N2CCCc3ccccc3C2)nc2cc(Cl)ccc12 | – |
| 230 nM | NCCNc1cc(N2CCOc3ccccc3C2)nc2ccccc12 | – |
| 6600 nM | NCCNc1cc(N2CCCc3ccccc3C2)nc2cccc(Cl)c12 | – |
| 11 nM | NCCNc1cc(N2CCS(=O)(=O)c3ccccc3C2)nc2ccccc12 | – |
| 7800 nM | NCCCNc1cc(N2CCc3ccccc3C2)nc2ccccc12 | – |
| > 100000 nM | NCC(O)CNc1cc(N2Cc3ccccc3C2)nc2ccccc12 (stereo not drawn) | – |
| 320 nM | COc1ccc2nc(N3CCCc4ccccc4C3)cc(NCCN)c2c1 | – |
| 5600 nM | CS(=O)(=O)c1ccc2nc(N3CCCc4ccccc4C3)cc(NCCN)c2c1 | – |
| 1500 nM | NCCNc1cc(N2CCCc3ccccc3C2)nc2ccc(F)cc12 | – |
| 7 nM | Cc1ccc2nc(N3CCS(=O)(=O)c4ccccc4C3)cc(NCCCCN)c2c1 | – |
| 27 nM | Cc1ccc2nc(N3CCS(=O)(=O)c4ccccc4C3)cc(NCCCCCN)c2c1 | – |
| 310 nM | Cc1ccc2nc(N3CC(=O)Nc4ccccc4C3)cc(NCCN)c2c1 | – |
| 220 nM | NCC(O)CNc1cc(N2CCc3ccccc3C2)nc2ccccc12 (stereo not drawn) | – |

| EC50 [1] | SMILES | also measured |
| --- | --- | --- |
| 2300 nM | NCCNc1cc(N2CCc3ccccc3C2)nc2ccccc12 | – |
| 2300 nM | N=C(N)NCCNc1cc(N2CCc3ccccc3C2)nc2ccccc12 | – |
| 4 nM | Cc1ccc2nc(N3CCS(=O)(=O)c4ccccc4C3)cc(NCCN)c2c1 | – |
| 73 nM | Cc1ccc2nc(N3CCCc4ccccc4C3)cc(NCCN)c2c1 | – |
| 100 nM | Cc1ccc2nc(N3CCCc4ccc(F)cc4C3)cc(NCCN)c2c1 | – |
| 1100 nM | NCCNc1cc(N2CCCc3ccccc3C2)nc2ccc(C(F)(F)F)cc12 | – |
| 1 nM | Cc1ccc2nc(N3CCS(=O)(=O)c4ccccc4C3)cc(NCCCN)c2c1 | – |
| 120 nM | NCCNc1cc(N2CCCc3ccccc3C2)nc2ccc(Cl)cc12 | – |
| 1100 nM | NCCNc1cc(N2CCCc3ccccc3C2)nc2c(Cl)cccc12 | – |
| – | Cc1ccc(O)c(Cn2c(NC3CCN(CCN)CC3)nc3c(C)cccc32)n1 [JNJ 2408068] | EC50 [3]: 0.16 nM |
| 230 nM | Cc1ccc2nc(N3CCNc4ccccc4C3)cc(NCCN)c2c1 | – |
| 22000 nM | OCC(O)CNc1cc(N2CCc3ccccc3C2)nc2ccccc12 (stereo not drawn) | – |
| > 100000 nM | CC(O)CNc1cc(N2CCc3ccccc3C2)nc2ccccc12 (stereo not drawn) | – |
| 15000 nM | NC(=O)NCCNc1cc(N2CCc3ccccc3C2)nc2ccccc12 | – |
| 460 nM | Cc1ccc2nc(N3CCCc4cc(F)ccc4C3)cc(NCCN)c2c1 | – |

| SMILES | EC50 [1] | also measured |
| --- | --- | --- |
| NCCNc1cc(N2CCCc3ccccc3C2)nc2ccccc12 | 200 nM | IC50 [2]: 2300 nM |

— BindingDB's records for doi:10.1021/acs.jmedchem.8b01394 (Roche Pharma Research and Early Development, 2018)
